# Assay results as given in US9126997B1, “Synergistic effect of glucocorticoid receptor agonists in combination with proteosome inhibitors for treating leukemia and myeloma” (Northwestern University, priority 2010, dated 2015).
# Assays:
# [1] = test system: glucocorticoid receptor (GR); test: GR protein levels in cells after treatment with proteasome inhibitor; type: cell-based, human
# Source text: (§1) Further, GR protein expression can be increased both in the absence and in the presence of […] such as glucocorticoids and SEGRA. Importantly, in the presence of GR ligands, cell pre-treatment with BZ results in the accumulation of GR whose function is defined by the ligand. […] Thus, SEGRA+BZ administered in combination will maximize the anti-inflammatory and anti-proliferative effects of SEGRA therapy that are based on GR transrepression, and at the same time will not induce metabolic side effects typical for glucocorticoids that are based on GR transactivation.
# [2] = test system: glucocorticoid receptor (GR); test: Function (transactivation / transrepression) of GR accumulated after cell pre-treatment with BZ in the presence of GR ligands; type: cell-based
# Source text: as §1
structure (smiles),measurement,setting,value
CC(C)C[C@H](NC(=O)[C@H](Cc1ccccc1)NC(=O)c1cnccn1)B(O)O [Bortezomib],endogenous GR protein levels,[1]; human epithelial and lymphoid cell lines and primary cell cultures,strongly increases endogenous GR protein levels
same,GR expression in GR-negative cells,[1]; some glucocorticoid-resistant GR-negative cells,re-expression of GR
same,GR accumulation and function,[2]; in the presence of SEGRA,accumulation of GR whose activity is shifted towards transrepression
same,GR accumulation and function,[2]; in the presence of glucocorticoids,accumulation of GR that is proficient in both transactivation and transrepression
